Patent US6872414B1, “Anhydrous lactitol crystals, a product containing the same and a process for the preparation thereof as well as use thereof” (Xyrofin Oy, priority 1999, dated 2005)
Where two headings read alike, the source gives them in different places.

Assays:
[1] = prior art reports; cited from earlier work
[2] = Hygroscopicity / water sorption of lactitol crystals; format: physicochemical
Experimental: The water sorption of a sample of β crystals was less than about 0.3% of water in 45 days even when the relative humidity of the ambient air was 75% at 40° C.

[3] = Storability of crystals at room temperature; format: physicochemical; conditions: room temperatures, relative humidity below 60%
Text: The new crystalline orthorhombic anhydrous lactitol β has a good flowability and storability, since it is stable at room temperatures, the relative humidity being below 60%.

[4] = Crystal form after milling (DSC, X-ray powder diffraction); format: physicochemical; conditions: laboratory hammer mill, 10 g/min, 600 rpm
Experimental: Good quality anhydrous β lactitol crystals (lactitol assay 99.9%, enthalpy 169.4±0.5 J/g) was milled with a small laboratory hammer mill (Culatti). The feed rate was 10 g/min and the hammer speed 600 rpm. Fine lactitol particles were obtained.

OC[C@@H](O)[C@@H](O[C@@H]1O[C@H](CO)[C@H](O)[C@H](O)[C@H]1O)[C@H](O)[C@@H](O)CO [A1 anhydrous lactitol, lactitol]
hygroscopicity [1]: hygroscopic

OC[C@@H](O)[C@@H](O[C@@H]1O[C@H](CO)[C@H](O)[C@H](O)[C@H]1O)[C@H](O)[C@@H](O)CO [anhydrous lactitol β, lactitol]
hygroscopicity [2]: very low hygroscopicity | hygroscopicity ([2]; 25° C. and 60% relative humidity): very low hygroscopicity | hygroscopicity ([2]; 40° C. and 75% relative humidity): very low hygroscopicity | water sorption ([2]; 40° C., 75% relative humidity, 45 days): less than 0.3% | stability / storability [3]: stable | crystal form after milling [4]: still in the anhydrous β form

OC[C@@H](O)[C@@H](O[C@@H]1O[C@H](CO)[C@H](O)[C@H](O)[C@H]1O)[C@H](O)[C@@H](O)CO [lactitol anhydride]
hygroscopicity [1]: highly hygroscopic

OC[C@@H](O)[C@@H](O[C@@H]1O[C@H](CO)[C@H](O)[C@H](O)[C@H]1O)[C@H](O)[C@@H](O)CO [α lactitol, lactitol]
hygroscopicity [1]: low hygroscopicity
